Experimental data published in US20220125093A1, “NUTRITIONAL SUPPLEMENTS INCLUDING MEAL REPLACEMENTS AND RELATED METHODS” (Ohio State Innovation Foundation, priority 2012, published 2022).

What was measured:
[1] = Iron status as ferritin/CRP ratio after bariatric surgery; assay type: in vivo, human; settings: added to meal replacement product, same amount of iron for each group
From the text: Design. Young adult females who were about to have bariatric surgery were recruited. Blood and urine samples were taken before surgery and 6 weeks later. People were divided into two groups. One group drank 2 servings per day of the new product related to this patent (N=12) for 6 weeks. The other group drank 2 servings of a current meal replacement product and also took other supplements including sublingual vitamin B12. The new product had the B12 put right in the meal replacement product. The vitamin is put in the product at a daily dose that is very high relative to normal recommendations, and high relative to what was used for injections or sublingual administration. Also, a coenzyme form of the vitamin was used in the meal replacement product.
Iron status was measured as ferritin/CRP ratios (ferritin reflects iron status but can also be influenced by inflammation; CRP only reflects inflammation).

[2] = single dose of zinc, healthy young adult women, blood at 0, 1, 2, 3 and 4 hours
From the text: Zinc glycinate has not been studied at all in people who have had bariatric surgery. Furthermore, in published studies on any types of people, zinc glycinate has not been compared much to other forms of zinc. Thus, an unpublished comparative study was done in healthy young adult women that compared zinc glycinate to two other forms of zinc. The study utilized an indirect approach of absorption. In this approach, a single dose of zinc was given to young adult women; blood was taken at 0, 1, 2, 3, and 4 hours. Both plasma and red blood cells (erythrocytes) were analyzed for zinc and for each, an area under the curve graph was calculated for zinc content versus time.

Row | Compound | iron status (ferritin/CRP ratios) [1] | erythrocyte (red blood cell) zinc area under the curve [2] | plasma zinc area under the curve [2]
1 | Iron Glycinate Chelate | improved iron status to about the same degree as a conventional bariatric meal replacement product+iron lozenges |  | 
2 | NCC(=O)[O-].NCC(=O)[O-].[Zn+2] [Zinc glycinate, zinc glycinate] |  | outperformed zinc oxide and gluconate | outperformed zinc oxide and gluconate
